Reference: patent US8975291B2, “Indoles” (GlaxoSmithKline LLC, priority 2010, dated 2015)

Each compound was assayed against T1, EZH2 within the PRC2 complex (Homo sapiens, UniProt Q15910) (assay: EZH2 methyltransferase scintillation proximity assay (SPA) with PRC2 complex). Settings: EZH2 inhibition, foregoing or analogous assay; unit inferred; read-out: IC50.
T1 construct: FLAG; made in house; host or cells: Sf9 cells
Type: biochemical
Description: Compounds contained herein were evaluated for their ability to inhibit the methyltransferase activity of EZH2 within the PRC2 complex. Human PRC2 complex was prepared by co-expressing each of the 5 member proteins (FLAG-EZH2, EED, SUZ12, RbAp48, AEBP2) in Sf9 cells followed by co-purification. Enzyme activity was measured in a scintillation proximity assay (SPA) where a tritiated methyl group is transferred from 3H-SAM to a lysine residue on Histone H3 of a mononucleosome, purified from HeLa cells. Mononucleosomes were captured on SPA beads and the resulting signal is read on a ViewLux plate reader.
Part A. Compound Preparation
• 1. Prepare 10 mM stock of compounds from solid in 100% DMSO. • 2. Set up an 11-point serial dilution (1:3 dilution, top concentration 10 mM) in 100% DMSO for each test compound in a 384 well plate leaving columns 6 and 18 for DMSO controls. • 3. Dispense […] of compound from the dilution plate into reaction plates (Grenier Bio-One, 384-well, Cat #784075). Part B. Reagent Preparation Prepare the following solutions: • 1. 50 mM Tris-HCl, pH 8: Per 1 L of base buffer, combine 1 M Tris-HCl, pH 8 (50 mL) and distilled water (950 mL). • 2. […] 2× Enzyme Solution: Per 10 mL of 2× Enzyme Solution, combine 1× Assay Buffer and PRC2 complex to provide a final enzyme concentration of 10 nM. • 4. SPA Bead Suspension: Per 1 mL of SPA Bead Suspension, combine PS-PEI coated LEADSeeker beads (40 mg) and ddH2O (1 mL) to provide a final concentration of 40 mg/mL. • 5. 2× Substrate Solution: Per 10 mL of 2× Substrate Solution, combine 1× Assay Buffer (9728.55 uL), 800 ug/mL mononucleosomes (125 uL), 1 mM cold SAM (4 uL), and 7.02 uM 3H-SAM (142.45 uL; 0.55 mCi/mL) to provide a final concentration of 5 ug/mL nucleosomes, 0.2 uM cold SAM, and 0.05 uM 3H-SAM. • 6. 2.67× Quench/Bead Mixture: Per 10 mL of 2.67× Quench/Bead Mixture, combine ddH2O (9358 uL), 10 mM cold SAM (267 uL), 40 mg/mL Bead Suspension (375 uL) to provide a final concentration of 100 uM cold SAM and 0.5 mg/mL SPA beads. Part C. Assay Reaction in 384-well Grenier Bio-One Plates Compound Addition • 1. Dispense […] of 100× Compound to test wells (as noted above). • 2. Dispense […] of 100% DMSO to columns 6 & 18 for high and low controls, respectively. Assay • 1. […] Dispense 5 uL/well of 2× Enzyme Solution to columns 1-17, 19-24. • 3. Spin assay plates for ˜1 minute at 500 rpm. • 4. Stack the assay plates, covering the top plate. • 5. Incubate the compound/DMSO with the enzyme for 30 minutes at room temperature. • 6. Dispense 5 uL/well of 2× Substrate Solution to columns 1-24. • 7. Spin assay plates for ˜1 minute at 500 rpm. • 8. Stack the assay plates, covering the top plate. • 9. Incubate the assay plates at room temperature for 1 hour. Quench/Bead Addition • 1. Dispense 5 uL/well of the 3× Quench/Bead Mixture to columns 1-24. • 2. Seal the top of each assay plate with adhesive TopSeal. • 3. Spin assay plates for ˜1 minute at 500 rpm. • 4. Equilibrate the plates for >20 min. Read Plates • 1. Read the assay plates on the Viewlux Plate Reader utilizing the 613 nm emission filter with a 300 s read time. Reagent addition can be done manually or with automated liquid handler. • The final DMSO concentration in this assay is 1%. • The positive control is in column 6; negative control is in column 18. • Final starting concentration of compounds is 100 μM. Part D. Data Analysis
Percent inhibition was calculated relative to the DMSO control for each compound concentration and the resulting values were fit using standard IC50 fitting parameters within the ABASE data fitting software package.

T1 sequence (Q15910 whole entry): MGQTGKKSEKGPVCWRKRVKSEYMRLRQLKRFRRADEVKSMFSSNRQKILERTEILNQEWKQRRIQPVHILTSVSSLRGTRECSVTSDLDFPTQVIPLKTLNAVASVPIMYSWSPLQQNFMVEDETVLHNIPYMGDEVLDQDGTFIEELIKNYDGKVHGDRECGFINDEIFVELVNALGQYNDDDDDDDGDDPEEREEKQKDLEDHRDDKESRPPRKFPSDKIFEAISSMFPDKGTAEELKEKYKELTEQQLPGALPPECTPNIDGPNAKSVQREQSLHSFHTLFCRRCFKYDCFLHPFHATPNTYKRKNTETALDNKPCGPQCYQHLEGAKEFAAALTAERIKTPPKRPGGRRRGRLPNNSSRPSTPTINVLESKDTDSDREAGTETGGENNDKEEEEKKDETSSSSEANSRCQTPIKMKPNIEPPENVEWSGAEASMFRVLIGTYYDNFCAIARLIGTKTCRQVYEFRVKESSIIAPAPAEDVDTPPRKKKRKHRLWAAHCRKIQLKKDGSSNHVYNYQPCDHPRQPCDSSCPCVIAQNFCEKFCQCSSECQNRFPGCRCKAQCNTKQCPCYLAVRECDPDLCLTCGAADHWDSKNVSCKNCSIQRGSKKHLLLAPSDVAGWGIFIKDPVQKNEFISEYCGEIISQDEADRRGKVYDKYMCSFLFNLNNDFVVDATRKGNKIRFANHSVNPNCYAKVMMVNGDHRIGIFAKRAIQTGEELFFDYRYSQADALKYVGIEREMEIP
T1 sequence (O75530 whole entry partner): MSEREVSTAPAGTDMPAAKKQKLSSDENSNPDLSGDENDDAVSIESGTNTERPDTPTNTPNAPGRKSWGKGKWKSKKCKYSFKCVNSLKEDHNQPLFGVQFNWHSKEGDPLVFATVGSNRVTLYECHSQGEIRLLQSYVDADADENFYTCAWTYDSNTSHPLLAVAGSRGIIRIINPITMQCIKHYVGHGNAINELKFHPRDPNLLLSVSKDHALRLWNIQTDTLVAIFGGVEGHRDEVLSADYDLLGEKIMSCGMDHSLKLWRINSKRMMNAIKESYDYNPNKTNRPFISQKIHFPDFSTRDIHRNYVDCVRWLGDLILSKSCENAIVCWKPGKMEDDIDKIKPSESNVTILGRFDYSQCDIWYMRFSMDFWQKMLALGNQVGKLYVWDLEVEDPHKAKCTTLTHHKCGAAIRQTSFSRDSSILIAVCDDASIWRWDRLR
T1 sequence (Q15022 whole entry partner): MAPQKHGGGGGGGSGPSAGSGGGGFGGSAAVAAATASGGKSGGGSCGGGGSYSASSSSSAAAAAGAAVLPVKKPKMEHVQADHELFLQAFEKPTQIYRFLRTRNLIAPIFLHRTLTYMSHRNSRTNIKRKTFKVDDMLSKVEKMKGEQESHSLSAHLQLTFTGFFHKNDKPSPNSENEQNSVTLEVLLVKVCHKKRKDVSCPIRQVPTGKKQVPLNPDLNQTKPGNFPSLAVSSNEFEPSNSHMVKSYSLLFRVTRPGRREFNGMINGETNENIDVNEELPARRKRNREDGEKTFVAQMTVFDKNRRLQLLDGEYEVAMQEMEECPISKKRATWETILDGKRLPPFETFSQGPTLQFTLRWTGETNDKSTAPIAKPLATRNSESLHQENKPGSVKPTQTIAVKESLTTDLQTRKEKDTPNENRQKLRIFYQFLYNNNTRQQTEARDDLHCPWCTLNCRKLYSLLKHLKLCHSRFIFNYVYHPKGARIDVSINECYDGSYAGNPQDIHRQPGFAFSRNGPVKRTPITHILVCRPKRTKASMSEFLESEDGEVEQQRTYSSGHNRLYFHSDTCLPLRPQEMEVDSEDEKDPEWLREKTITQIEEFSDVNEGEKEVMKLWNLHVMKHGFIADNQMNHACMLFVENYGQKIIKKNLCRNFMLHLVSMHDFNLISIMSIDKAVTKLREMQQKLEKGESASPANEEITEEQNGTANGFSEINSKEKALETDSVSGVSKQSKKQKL
T1 sequence (Q09028 whole entry partner): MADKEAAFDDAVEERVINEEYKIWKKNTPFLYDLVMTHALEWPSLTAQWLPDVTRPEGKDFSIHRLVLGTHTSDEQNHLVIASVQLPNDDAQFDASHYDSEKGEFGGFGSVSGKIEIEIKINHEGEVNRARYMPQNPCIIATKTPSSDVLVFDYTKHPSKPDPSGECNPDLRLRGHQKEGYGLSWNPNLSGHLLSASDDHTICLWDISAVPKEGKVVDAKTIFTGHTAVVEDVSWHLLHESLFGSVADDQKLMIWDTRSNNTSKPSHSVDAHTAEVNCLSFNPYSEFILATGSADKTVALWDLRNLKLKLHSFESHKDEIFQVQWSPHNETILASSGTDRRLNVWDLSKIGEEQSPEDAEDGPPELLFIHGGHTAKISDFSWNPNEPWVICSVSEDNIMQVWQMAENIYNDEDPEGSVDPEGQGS
T1 sequence (Q6ZN18 whole entry partner): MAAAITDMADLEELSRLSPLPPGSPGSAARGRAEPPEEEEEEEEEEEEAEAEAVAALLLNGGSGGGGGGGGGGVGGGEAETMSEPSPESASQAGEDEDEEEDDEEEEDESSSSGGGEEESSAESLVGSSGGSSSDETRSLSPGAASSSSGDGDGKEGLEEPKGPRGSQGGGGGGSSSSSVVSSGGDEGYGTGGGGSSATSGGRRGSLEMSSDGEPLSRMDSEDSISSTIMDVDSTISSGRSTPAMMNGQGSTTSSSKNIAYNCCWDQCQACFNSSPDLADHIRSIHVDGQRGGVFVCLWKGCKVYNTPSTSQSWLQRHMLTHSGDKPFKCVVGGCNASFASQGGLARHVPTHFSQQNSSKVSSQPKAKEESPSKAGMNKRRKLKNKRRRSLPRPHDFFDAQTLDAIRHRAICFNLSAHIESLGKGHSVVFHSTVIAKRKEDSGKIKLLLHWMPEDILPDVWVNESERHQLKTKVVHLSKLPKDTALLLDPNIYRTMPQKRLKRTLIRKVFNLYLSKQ

| SMILES | IC50 [nM] |
| --- | --- |
| Cc1cc(C)c(CNC(=O)c2cc(Br)cc3c2c(C)cn3CC(C)N(C)C)c(=O)[nH]1 (stereo not drawn) [Ex 78, 6-bromo-N-((4,6-dimethyl-2-oxo-1,2-dihydropyridin-3-yl)methyl)-1-(2-(dimethylamino)propyl)-3-methyl-1H-indole-4-carboxamide] | 1800 |
| Cc1cc(Cn2cccn2)c(CNC(=O)c2cc(Br)cc3c2c(C)cn3C(C)C)c(=O)[nH]1 [Ex 234, 6-bromo-3-methyl-1-(1-methylethyl)-N-{[6-methyl-2-oxo-4-(1H-pyrazol-1-ylmethyl)-1,2-dihydro-3-pyridinyl]methyl}-1H-indole-4-carboxamide] | 1000 |
| CCC(C)n1cc(C)c2c(C(=O)NCc3c(C)cc(C)[nH]c3=O)cc(Br)cc21 (stereo not drawn) [Ex 266, 6-bromo-1-(sec-butyl)-N-((4,6-dimethyl-2-oxo-1,2-dihydropyridin-3-yl)methyl)-3-methyl-1H-indole-4-carboxamide] | 25 |
| CC[C@H](C)n1cc(C)c2c(C(=O)NCc3c(C)cc(C)[nH]c3=O)cc(Br)cc21 [Ex 267, (S)-6-bromo-1-(sec-butyl)-N-((4,6-dimethyl-2-oxo-1,2-dihydropyridin-3-yl)methyl)-3-methyl-1H-indole-4-carboxamide] | 20 |
| CCC(C)n1cc(C)c2c(C(=O)NCc3c(C)cc(C)[nH]c3=O)cc(-c3cccc(CN(C)C)c3)cc21 (stereo not drawn) [Ex 272, 1-(sec-Butyl)-N-((4,6-dimethyl-2-oxo-1,2-dihydropyridin-3-yl)methyl)-6-(3-((dimethylamino)methyl)phenyl)-3-methyl-1H-indole-4-carboxamide] | 13 |
| CC[C@H](C)n1cc(C)c2c(C(=O)NCc3c(C)cc(C)[nH]c3=O)cc(-c3cccc(CN(C)C)c3)cc21 [Ex 273, 6-{3-[(Dimethylamino)methyl]phenyl}-N-[(4,6-dimethyl-2-oxo-1,2-dihydro-3-pyridinyl)methyl]-3-methyl-1-[(1S)-1-methylpropyl]-1H-indole-4-carboxamide] | 10 |
| CC[C@@H](C)n1cc(C)c2c(C(=O)NCc3c(C)cc(C)[nH]c3=O)cc(-c3cccc(CN(C)C)c3)cc21 [Ex 274, 6-{3-[(dimethylamino)methyl]phenyl}-N-[(4,6-dimethyl-2-oxo-1,2-dihydro-3-pyridinyl)methyl]-3-methyl-1-[(1R)-1-methylpropyl]-1H-indole-4-carboxamide] | 32 |

The next lines start with the values.

| IC50 [nM] | SMILES |
| --- | --- |
| 18 | Cc1cc(C)c(CNC(=O)c2cc(-c3ccc(OCCN(C)C)cc3)cc3c2c(C)cn3C(C)C)c(=O)[nH]1 [Ex 174, 6-(4-{[2-(dimethylamino)ethyl]oxy}phenyl)-N-[(4,6-dimethyl-2-oxo-1,2-dihydro-3-pyridinyl)methyl]-3-methyl-1-(1-methylethyl)-1H-indole-4-carboxamide] |
| 14 | Cc1cc(C)c(CNC(=O)c2cc(-c3ccc4[nH]cnc4c3)cc3c2c(C)cn3C(C)C)c(=O)[nH]1 [Ex 211, 6-(1H-benzimidazol-5-yl)-N-[(4,6-dimethyl-2-oxo-1,2-dihydro-3-pyridinyl)methyl]-3-methyl-1-(1-methylethyl)-1H-indole-4-carboxamide] |
| 9 | Cc1cc(C)c(CNC(=O)c2cc(-c3ccc4c(N)n[nH]c4c3)cc3c2c(C)cn3C(C)C)c(=O)[nH]1 [Ex 212, 6-(3-amino-1H-indazol-6-yl)-N-[(4,6-dimethyl-2-oxo-1,2-dihydro-3-pyridinyl)methyl]-3-methyl-1-(1-methylethyl)-1H-indole-4-carboxamide] |
| 29 | Cc1cc(C)c(CNC(=O)c2cc(-c3cc4[nH]ncc4cn3)cc3c2c(C)cn3C(C)C)c(=O)[nH]1 [Ex 244, N-((4,6-dimethyl-2-oxo-1,2-dihydropyridin-3-yl)methyl)-1-isopropyl-3-methyl-6-(1H-pyrazolo[4,3-c]pyridin-6-yl)-1H-indole-4-carboxamide] |
| 40 | CC[C@@H](C)n1cc(C)c2c(C(=O)NCc3c(C)cc(C)[nH]c3=O)cc(Br)cc21 [Ex 268, (R)-6-Bromo-1-(sec-butyl)-N-((4,6-dimethyl-2-oxo-1,2-dihydropyridin-3-yl)methyl)-3-methyl-1H-indole-4-carboxamide] |
